Columns and labels:
[1] = tested on: OE33 human oesophageal adenocarcinoma; experiment: MTT assay, OE33 cells; assay type: cell-based
Description: (§1) MTT assay. OE21, FLO-1 or hSAEC1-KT cells were seeded in 96 well plates at 20,000 cells/well (for 24 h treatment) or 10,000 cells/well (for 72 h treatment) and allowed to adhere for 24 h before treatment. OE33 cells were seeded in 48 well plates at 40,000 cells/well (24 h treatment) or 20,000 cells/well (72 h treatment). Cancer cell lines were treated with chemicals dissolved in RPMI media for consistency. After incubation, 0.5 mg/ml MTT (thiazolyl blue tetrazolium bromide) dissolved in serum-free medium was added for 60 minutes and the formazan product eluted using acidified isopropanol.
(§2) The absorbance at 540 nm was quantified by plate reader (reference wavelength 650 nm). The metabolic activity of the cell population was determined as a percentage of a negative (solvent) control. […]
(§3) For the determination of mutation induction, from the untreated and each treated condition, 2x10^5 cells were plated in 10 x 100 mm dishes in selective media (regular media

[2] = tested on: FLO-1 human oesophageal adenocarcinoma; experiment: MTT assay, FLO-1 cells; assay type: cell-based
Description: as §1, §2, §3

[3] = tested on: OE21 cells; experiment: Trypan Blue exclusion assay; assay type: cell-based, human; conditions: OE21, Ru1 21 μM
Description: Trypan Blue exclusion assay. OE21 cells were seeded in 6 well plates at 40,000 cells/well and allowed to adhere for 24 h.
Cell cultures were treated as stated, media containing detached/dead cells were removed and retained, and adherent collected by Trypsin and centrifugation. Adherent and detached cells for each sample were combined, concentrated via centrifugation and re-suspended in 0.5 ml PBS containing 0.04% Trypan Blue solution. Trypan Blue negative and Trypan Blue positive cells were counted by haemocytometer. A minimum of 200 cells were counted for each sample. […]
as §3

[4] = tested on: FLO-1 cells; experiment: Micronuclei formation, FLO-1; assay type: cell-based, human; conditions: FLO-1, 44 μM Ru1, 24 h incubation
Description: Microscopy and immunofluorescence. Cells were seeded on ibidi 35 mm µ-dishes (Thistle Scientific), allowed to adhere for 24 h and treated as stated in the main text. Cell media was removed, cells washed with PBS and fixed with formaldehyde (4%, 10 mins). Cells were permeablised with Triton (0.5% in PBS, 5 mins) and washed with PBS. Samples were blocked with BSA (3% in PBS-T) for 1 h before incubation with primary antibody (either anti-α-tubulin or anti-γ H2AX, 1/500 dilution) in BSA (3% in PBS-T) for 1 h. Samples were washed 3x in PBS-T and incubated with Alexa Fluor-conjugated secondary antibodies (3% in PBS-T, 1 h, 1/250 dilution). After further washing (3x5 min PBS-T) samples were co-stained with DAPI (5 ng/ml, 2 min), fresh PBS added and visualised by confocal microscopy. Samples were visualised using a Zeiss LSM 780 or LSM 710 inverted confocal microscope and EC Plan-Neofluar 40x/1.30 Oil objectives. […]
as §3

[5] = tested on: OE33 cells; experiment: Clonogenic survival assay with IR, OE33; assay type: cell-based, human; conditions: Ru1 2 μM or Cis 500 nM for 24 h before IR
Description: (§4) Clonogenic survival assay. OE21, OE33 or FLO1 cells were treated with 2 µM Ru1 for 24 h before irradiation with 0-8 Gy using a 137Cs γ-irradiator (IBL637, CIS Bio Int.; dose rate = 0.809 Gy min−1). 1 h after irradiation, cells were detached using Trypsin and re-seeded in 6 well plates at a density of 300 – 20,000 cells/well in triplicate in an incrementally greater number of cells with increasing IR dose to ensure adequate colony formation. Cells were incubated for 7–14 days after re-seeding to allow colony formation before being fixed with 10% methanol, 10% acetic acid and stained with 0.4% methylene blue. OE33 cells required an additional formaldehyde fixation (4% in PBS, 5 mins) step before the addition of methylene blue solution or colony detachment occurred. Colonies containing 50 cells or greater were counted using a Gelcount instrument and accompanying software (Oxford Optronix). Plating efficiencies were determined for each treatment condition and normalised to an untreated control to provide the surviving fraction (S. F.). S.F. versus radiation dose curves were plotted in GraphPad Prism and fit using a second order polynomial function (R2 values > 0.99). Dose modifying factors (DMF) at a SF=0.1 were calculated using the equation: Dose modifying factor (DMF) = IR dose to give S.F. 0.1/IR dose plus compound to give S.F.0.1. […]

[6] = tested on: FLO-1 cells; experiment: Clonogenic survival assay with IR, FLO-1; assay type: cell-based, human; conditions: Ru1 2 μM or Cis 300 nM for 24 h before IR
Description: as §4

[7] = tested on: OE21, OE33 or FLO-1 cells; experiment: Clonogenic survival assay with IR, three oesophageal cancer cell lines; assay type: cell-based, human
Description: as §4

[8] = cited from earlier work

[Ru(phen)2(tpphz)]^2+ [Ru1] showed an IC50 ([1]; OE33, 24 h constant exposure) of 44.5 ± 3.5 µM, an IC50 ([1]; OE33, 72 h constant exposure) of 27 ± 2.8 µM and an IC50 ([2]; FLO1, 24 h constant exposure) of 42 ± 8 µM. The IC50 ([2]; FLO1, 72 h constant exposure) was 11.5 ± 2.1 µM, the “necrotic cell death (Trypan blue staining)” value [3] was ~20% and the “Cells with micronuclei, Percentage” value [4] was 3.3%. The S.F. ([5]; OE33, IR 0 Gy) was 0.956, the S.F. ([5]; OE33, IR 2 Gy) was 0.447 and the S.F. ([5]; OE33, IR 4 Gy) was 0.083. The S.F. ([5]; OE33, IR 6 Gy) was 0.014, the S.F. ([5]; OE33, IR 8 Gy) was 0.003 and the S.F. ([6]; FLO-1, IR 0 Gy) was 0.873. It also gave a S.F. ([6]; FLO-1, IR 2 Gy) of 0.188, a S.F. ([6]; FLO-1, IR 4 Gy) of 0.042 and a S.F. ([6]; FLO-1, IR 6 Gy) of 0.005. The “surviving fraction (S.F.), single-agent” value ([7]; 2 μM, 24 h, no IR, all three cell lines) was > 0.87, the “dose modification factor (DMF) at surviving fraction of 0.1” value ([7]; Ru1 2 μM or sub-cytotoxic cisplatin (500 nM OE21 and OE33, 300 nM FLO-1), 24 h before IR, range over three cell lines) was 1.19–1.31 and the “log P” value [8] was “–1.24”.
